Assay results published in PubChem BioAssay (NCI).
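GI50 is the concentration that inhibits growth by half. TGI: concentration producing complete growth inhibition.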

Tests used:
Assay in all cases: growth of human tumour cells (NCI), 384-well format
[1] = tested on: 786-0 renal
[2] = tested on: A498 renal
[3] = tested on: A549 NSCLC
[4] = tested on: ACHN renal
[5] = tested on: BT-549 breast
[6] = tested on: CAKI-1 renal
[7] = tested on: CCRF-CEM leukemia
[8] = tested on: COLO 205 colon
[9] = tested on: EKVX NSCLC
[10] = tested on: HCC-2998 colon
[11] = tested on: HCT-116 colon
[12] = tested on: HCT-15 colon
[13] = tested on: HL-60(TB) leukemia
[14] = tested on: HOP-62 NSCLC
[15] = tested on: HS 578T breast
[16] = tested on: HT29 colon
[17] = tested on: IGROV1 ovarian
[18] = tested on: K-562 leukemia
[19] = tested on: KM12 colon
[20] = tested on: LOX IMVI melanoma
[21] = tested on: M14 melanoma
[22] = tested on: MALME-3M melanoma
[23] = tested on: MDA-MB-231 breast
[24] = tested on: MDA-MB-435 melanoma
[25] = tested on: MDA-MB-468 breast
[26] = tested on: MOLT-4 leukemia
[27] = tested on: NCI-H226 lung
[28] = tested on: NCI-H23 lung
[29] = tested on: NCI-H322M lung
[30] = tested on: NCI-H460 NSCLC
[31] = tested on: NCI-H522 lung
[32] = tested on: NCI/ADR-RES ovarian
[33] = tested on: OVCAR-3 ovarian
[34] = tested on: OVCAR-4 ovarian
[35] = tested on: OVCAR-5 ovarian
[36] = tested on: OVCAR-8 ovarian
[37] = tested on: PC-3 prostate
[38] = tested on: RPMI-8226 leukemia
[39] = tested on: RXF 393 renal
[40] = tested on: SF-268 CNS
[41] = tested on: SF-295 CNS
[42] = tested on: SF-539 CNS
[43] = tested on: SK-MEL-2 melanoma
[44] = tested on: SK-MEL-28 melanoma
[45] = tested on: SK-MEL-5 melanoma
[46] = tested on: SK-OV-3 ovarian
[47] = tested on: SN12C renal
[48] = tested on: SW-620 colon
[49] = tested on: T-47D breast
[50] = tested on: U251 glioblastoma
[51] = tested on: UACC-257 melanoma
[52] = tested on: UACC-62 melanoma
[53] = tested on: UO-31 renal

SMILES: CS(=O)(=O)Nc1cc(-c2ccc3ncnc(Nc4ccc(F)c(Cl)c4)c3c2)cnc1Cl
- GI50 [1]: 1.35 µM
- TGI [1]: 4.82 µM
- GI50 [2]: 0.905 µM
- TGI [2]: 4.06 µM
- GI50 [3]: 1.37 µM
- TGI [3]: 2.84 µM
- GI50 [4]: 1.8 µM
- TGI [4]: > 100 µM
- GI50 [5]: 0.573 µM
- TGI [5]: 2.34 µM
- GI50 [6]: 0.492 µM
- TGI [6]: 2.02 µM
- GI50 [7]: 0.166 µM
- TGI [7]: 0.466 µM
- GI50 [8]: 1.21 µM
- TGI [8]: 2.99 µM
- GI50 [9]: 0.498 µM
- TGI [9]: 2.06 µM
- GI50 [10]: 1.18 µM
- TGI [10]: 2.62 µM
- GI50 [11]: 1.14 µM
- TGI [11]: 2.64 µM
- GI50 [12]: 0.885 µM
- TGI [12]: 3.14 µM
- GI50 [13]: 0.158 µM
- TGI [13]: 1.06 µM
- GI50 [14]: 1.43 µM
- TGI [14]: 5.19 µM
- GI50 [15]: 0.501 µM
- TGI [15]: 2.31 µM
- GI50 [16]: 1.11 µM
- TGI [16]: 2.52 µM
- GI50 [17]: 0.154 µM
- TGI [17]: 0.471 µM
- GI50 [18]: 1.52 µM
- TGI [18]: 10.6 µM
- GI50 [19]: 2.86 µM
- TGI [19]: 19.9 µM
- GI50 [20]: 1.22 µM
- TGI [20]: 2.56 µM
- GI50 [21]: 1.14 µM
- TGI [21]: 4 µM
- GI50 [22]: 0.293 µM
- TGI [22]: 1.64 µM
- GI50 [23]: 2.33 µM
- TGI [23]: > 100 µM
- GI50 [24]: 1.38 µM
- TGI [24]: 7.87 µM
- GI50 [25]: 0.253 µM
- TGI [25]: 0.769 µM
- GI50 [26]: 0.16 µM
- TGI [26]: 0.348 µM
- GI50 [27]: 1.44 µM
- TGI [27]: 13.4 µM
- GI50 [28]: 1.15 µM
- TGI [28]: 4.03 µM
- GI50 [29]: 1.19 µM
- TGI [29]: 3.36 µM
- GI50 [30]: 1.01 µM
- TGI [30]: 3.84 µM
- GI50 [31]: 0.547 µM
- TGI [31]: 2.36 µM
- GI50 [32]: 3.6 µM
- TGI [32]: 40.3 µM
- GI50 [33]: 0.457 µM
- TGI [33]: 1.85 µM
- GI50 [34]: 1.22 µM
- TGI [34]: 4.45 µM
- GI50 [35]: 0.939 µM
- TGI [35]: 4.55 µM
- GI50 [36]: 1.91 µM
- TGI [36]: 10.1 µM
- GI50 [37]: 0.872 µM
- TGI [37]: 2.28 µM
- GI50 [38]: 0.37 µM
- TGI [38]: 1.58 µM
- GI50 [39]: 0.45 µM
- TGI [39]: 1.96 µM
- GI50 [40]: 1.42 µM
- TGI [40]: 2.9 µM
- GI50 [41]: 1.29 µM
- TGI [41]: 2.93 µM
- GI50 [42]: 1.48 µM
- TGI [42]: 5.05 µM
- GI50 [43]: 1.2 µM
- TGI [43]: 2.55 µM
- GI50 [44]: 0.728 µM
- TGI [44]: 8.86 µM
- GI50 [45]: 1.03 µM
- TGI [45]: 2.22 µM
- GI50 [46]: 0.635 µM
- TGI [46]: 3.32 µM
- GI50 [47]: 0.524 µM
- TGI [47]: 5.25 µM
- GI50 [48]: 1.65 µM
- TGI [48]: 3.84 µM
- GI50 [49]: 0.0855 µM
- TGI [49]: 0.548 µM
- GI50 [50]: 0.691 µM
- TGI [50]: 2.11 µM
- GI50 [51]: 1.36 µM
- TGI [51]: 5.54 µM
- GI50 [52]: 1.04 µM
- TGI [52]: 2.55 µM
- GI50 [53]: 0.639 µM
- TGI [53]: 2.42 µM
